Our source for the mortality, LC50 and LD50 values is patent US4570005A, “Process for the preparation of 2-arylpropyl ether or thioether derivatives” (priority 1980, dated 1986).

One data set relates to green peach aphid. Kind of data set: Test 5: Effect on Green Peach Aphid. The class given is in vivo. The conditions noted are these: Myzus persicae; 100 ppm; mortality class; 24 hours; read-out: Insecticidal Activity. Here is the method:
(§1) To a mixture of 20 parts of the compound of the present invention and 20 parts of Sorpol SM-200 (registered tradename for the product supplied by Toho Chemical Industrial Co., Ltd.) was added 60 parts of xylol, and the mixture was suffciently blended. The obtained emulsifiable concentrate was diluted at a predetermined concentration with distilled water, and the obtained dilution was used.
Seedlings (having 3 to 4 leaves) of an eggplant grown on a pot were inoculated with green peach aphids and the insects were allowed to grow. The number of the insects was counted. A chemical dilution having a concentration of 100 ppm, prepared in the same manner as described in Test 1, was applied with a spray gun at a rate of 10 ml per pot. Then, the pot was placed in a glass green house. After 24 hours, the number of living insects was counted and the mortality was calculated.
The test was made on three pots, and the average value was calculated. In Table 6, mark "A" indicates a mortality higher than 95%, mark "B" indicates a mortality of 80 to 95%, mark "C" indicates a mortality of 50 to 80%, and mark "D" indicates a mortality lower than 50%.

Another data set is described as follows: Test 8: Fish Toxicity. The class given is in vivo. The conditions noted are these: carp, water; concentration at which 1/2 of the test fishes were killed within 48 hours; read-out: Fish Toxicity, TLm48. Here is the method:
A water tank having a width of 60 cm, a length of 30 cm and a height of 40 cm was filled with water, and 10 yearling carps having a body length of about 5 cm were set free in the tank and adapted to the environment in the tank. A test compound was applied so that the concentration in water was 10, 1 or 0.1 ppm. After 48 hours, the numbers of killed and living carps were counted and the influences on the fishes were examined.

Data set [1] in a line: Test 9: Toxicity Test (acute oral toxicity, mice). The conditions noted are these: mouse, in vivo, po. Here is the method:
A predetermined amount of a solution or suspension of a test compound in corn oil was orally administered to male mice having a body weight of 19 to 23 g (0.2 ml per 10 g of the body weight). After 7 days, the number of killed mice was counted and the influences on the mice were examined.

For data set [2], the system named is resistant green rice leafhopper (collected at Nakagawara). Kind of data set: Test 3: Effect on Resistant Green Rice Leafhopper (collected at Nakagawara). The class given is in vivo, Nephotettix cincticeps Uhler (Green rice leafhopper). To be noted: Nephotettix cincticeps, 24 h, read-out: Mortality (%), Green Rice Leafhopper Collected at Nakagawara. An outline of the steps:
(§2)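 Ten adult females per pot, either resistant (Nakagawara) or sensitive (Chigasaki), were caged on air-dried rice seedlings (2–3 leaves) sprayed at 3 ml/pot with 100 or 20 ppm of an emulsifiable concentrate dilution. Dead and living insects were counted after 24 hours; mortality is the mean of three pots.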

The test system of data set [3] is sensitive green rice leafhopper (collected at Chigasaki). Kind of data set: whole plant or invertebrate. The class given is in vivo. The conditions noted are these: Nephotettix cincticeps, read-out: Mortality (%), Green Rice Leafhopper Collected at Chigasaki. The essentials: as §2
The next data set concerns two-spotted spider mite. Kind of data set: Test 6: Effect on Two-Spotted Spider mite Adults. The class given is in vivo. The conditions noted are these: Tetranychus urticae; 100 ppm; adults; 24 hours; 25° C; read-out: Mortality (%). On the procedure: as §1
A kidney bean leaf disc perforated with a cork borer (15 mm in diameter) was placed on water-impregnated absorbent cotton (2 cm×2 cm), and 10 adults of two-spotted spider mite were set free. A chemical dilution having a concentration of 100 ppm was applied with an applicator in an amount of 3 ml.
The leaf disc-placed absorbent cotton was placed in a thermostat chamber maintained at 25° C. After 24 hours, the number of killed adults was counted and the mortality was calculated. The test was made on three leaf discs and the average value was calculated.

A further data set has as its system diamond back moth. Put plainly: Test 4: Effect on Diamond Back Moth. The class given is in vivo. To be noted: Plutella. An outline of the steps:
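Compound formulated as an emulsifiable concentrate, diluted in water to 100 or 20 ppm and sprayed at 3 ml per cup onto cabbage leaves holding 10 third-instar larvae. Mortality counted after 24 hours; mean of three cups.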

The test system of another data set is German cockroach. Put plainly: Test 7: Effect on German Cockroach. The class given is in vivo. To be noted: Blattella germanica. The essentials: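 Petri dish floors were treated with 50 or 10 mg/m2 of compound (diluted emulsifiable concentrate) and air-dried. Ten male adult German cockroaches per dish were held at 25° C. Agonized and dead insects were counted after 24 hours, averaging two dishes.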

Data set [4] deals with tobacco cutworm. Put plainly: Test 1: Effect on Tobacco Cutworm (leaf immersion), mortality after 24 hours. To be noted: second-instar larvae, 25° C. The class given is in vivo. An outline of the steps: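 Second-instar tobacco cutworm larvae were kept at 25 °C on air-dried sweet-potato leaves that had been immersed for 10 s in test dilutions of 100 or 20 ppm from an emulsifiable concentrate. Mortality was scored at 24 h as the mean of three cups.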

Data set [5] relates to tobacco cutworm. Put plainly: Test 2: Tobacco Cutworm Larva Dipping Test, mortality after 24 hours. The class given is in vivo. The conditions noted are these: 24 h. The essentials:
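Second- and fifth-instar larvae dipped 5 s in a water dilution of an emulsifiable concentrate at 100 or 20 ppm, blotted, then held on artificial diet at 25° C. Dead and living larvae counted after 24 hours; mortality averaged over three cups.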

The mark [6] stands for this setting: 20 ppm, sensitive female adults, 24 hours.
Setting [7] is: 100 ppm, sensitive female adults, 24 hours.
[8] abbreviates: 20 ppm, third-instar larvae, 24 hours, read-out: Mortality (%).
Setting [9] is: 100 ppm, third-instar larvae, 24 hours, read-out: Mortality (%).
The mark [10] stands for this setting: 10 mg/m^2, male adults, agonized and killed after 24 hours, read-out: Mortality (%).
The mark [11] stands for this setting: 50 mg/m^2, male adults, agonized and killed after 24 hours, read-out: Mortality (%).
The mark [12] stands for this setting: read-out: Motality (%), Fifth-Instar Larvae.
Setting [13] is: read-out: Motality (%), Second-Instar Larvae.

Like-named read-outs stand apart in the source and are kept apart here.

Broadly, the LD50 is the dose at which mortality reaches 50%.

Turning to `COc1ccc(Oc2cccc(COCC(C)(C)c3ccc(SC)cc3)c2)cc1` [Compound 8, 3-(4-Methoxyphenoxy)benzyl 2-(4-methylthiophenyl)-2-methylpropyl ether], the mortality at 100 ppm in the data set with green peach aphid was 80 to 95%. In addition, in “Test 8: Fish Toxicity”, the LC50 at 48 h was over 10 µg/mL. Moreover, the LD50 at 168 h in data set [1] is over 500 mg/kg.
`CC(C)(COCc1coc(Cc2ccccc2)c1)c1ccc(Cl)cc1` [Compound 12, 5-Benzyl-3-furylmethyl 2-(4-chlorophenyl)-2-methylpropyl ether]: the mortality at 100 ppm with green peach aphid was 80 to 95%. In “Test 8: Fish Toxicity”, the LC50 at 48 h is over 10 µg/mL. Further, the LD50 at 168 h in data set [1] was over 500 mg/kg.
Regarding `CC(C)(COCc1cccc(Sc2ccccc2)c1)c1ccc(Cl)cc1` [Compound 15, 3-Phenylthiobenzyl 2-(4-chlorophenyl)-2-methylpropyl ether], the mortality at 20 ppm in data set [2] is 90%; in [3] (setting [6]) it was 70%. The mortality at 100 ppm is 100% in data set [2], 100% in [3] (setting [7]) and 80 to 95% in the data set on green peach aphid. In addition, in the data set “Test 8: Fish Toxicity”, the LC50 at 48 h was over 10 µg/mL. For the same compound, the LD50 at 168 h in data set [1] was over 500 mg/kg.
Turning to `CCC(C)(COCc1cccc(Oc2ccc(Br)cc2)c1)c1ccc(F)cc1` (stereo not shown) [Compound 16, 3-(4-bromophenoxy)benzyl 2-(4-fluorophenyl)-2-ethylpropyl ether], the mortality at 20 ppm in [2] came out at 100%; in data set [3] (setting [6]), 90%. Moreover, the mortality at 100 ppm in data set [2] stood at 100%; in data set [3] (setting [7]), 100%; with two-spotted spider mite, 90%. Besides, the LD50 at 168 h in data set [1] was over 500 mg/kg.
Regarding `CSc1ccc(C(C)(C)COCc2cccc(Oc3ccccc3)c2)cc1` [Compound 24, 3-Phenoxybenzyl 2-(4-methylthiophenyl)-2-methylpropyl ether], the mortality at 20 ppm in [2] turned out to be 70%; in data set [3] (setting [6]), 40%. For the same compound, the figures for the mortality at 100 ppm (in [2]; in data set [3] (setting [7]); with green peach aphid) were 100%, 100% and over 95%, respectively. The LC50 at 48 h in the data set “Test 8: Fish Toxicity” was over 10 µg/mL. Further, in data set [1], the LD50 at 168 h is over 500 mg/kg.
On to `CC(C)(COCc1cccc(Oc2cccc(Cl)c2)c1)c1ccc(OC(F)F)cc1` [Compound 25, 3-(3-Chlorophenoxy)benzyl 2-(4-difluoromethoxyphenyl)-2-methylpropyl ether], for which the mortality at 20 ppm in data set [2] and in data set [3] (setting [6]) was 100% in each case. Also, the figures for the mortality at 100 ppm (in [2]; in data set [3] (setting [7]); in the data set on two-spotted spider mite) were 100%, 100% and 90%, respectively. The compound also came in with an LD50 at 168 h in data set [1] of over 500 mg/kg.
`CCC(C)(COCc1cccc(Oc2cccc(Cl)c2)c1)c1cccc(C)c1` (stereo not shown) [Compound 29]: the mortality at 100 ppm with green peach aphid lay within 80 to 95%. Further, the LC50 at 48 h in “Test 8: Fish Toxicity” was over 10 µg/mL. The compound further registered an LD50 at 168 h in [1] of over 500 mg/kg.
Take `CCC(C)(COCc1cccc(Oc2ccccc2)c1)c1ccc(Cl)c(Cl)c1` (stereo not shown) [Compound 52, 3-Phenoxybenzyl 2-(3,4-dichlorophenyl)-2-ethylpropyl ether]: the mortality at 20 ppm (in data set [2]; in data set [3] (setting [6]); in the data set on diamond back moth (setting [8])) was 90% each time. In addition, the mortality at 100 ppm in data set [2] was 100%; in [3] (setting [7]), 100%; in the data set with diamond back moth (setting [9]), 100%; with green peach aphid, over 95%. For the same compound, the mortality at 10 mg/m2 with German cockroach (setting [10]) was determined as 90%. In addition, the mortality at 50 mg/m2 in the data set with German cockroach (setting [11]) amounted to 100%. Moreover, in the data set “Test 8: Fish Toxicity”, the LC50 at 48 h was over 10 µg/mL. Further, in [1], the LD50 at 168 h is over 500 mg/kg.
With `CCC(C)(COCc1cccc(Oc2ccccc2)c1)c1ccc(C)cc1` (stereo not shown) [Compound 53, 3-Phenoxybenzyl 2-(4-methylphenyl)-2-ethylpropyl ether], the mortality at 20 ppm stood at 100% in data set [2], 80% in [3] (setting [6]) and 100% in the data set on diamond back moth (setting [8]). Moreover, the mortality at 100 ppm is 100% in data set [2], 100% in data set [3] (setting [7]), 100% in the data set on diamond back moth (setting [9]) and 80 to 95% with green peach aphid. Moreover, in “Test 8: Fish Toxicity”, the LC50 at 48 h was over 10 µg/mL. The compound also came in with an LD50 at 168 h in [1] of over 500 mg/kg.
As for `CCOc1ccc(C(C)(C)COCc2cccc(Oc3ccccc3)c2)cc1` [Compound 55, 3-Phenoxybenzyl 2-(4-ethoxyphenyl)-2-methylpropyl ether], the mortality at 20 ppm (with tobacco cutworm [4]; in the data set with tobacco cutworm [5] (setting [12]); in the data set on tobacco cutworm [5] (setting [13]); in [2]; in data set [3] (24 h); in the data set on diamond back moth (24 h)) was 100% in each case. For the same compound, the mortality at 100 ppm (in the data set with tobacco cutworm [4]; in the data set on tobacco cutworm [5] (setting [12]); in the data set on tobacco cutworm [5] (setting [13]); in data set [2]; in data set [3] (24 h); with diamond back moth (24 h)) was 100% in each case. In the data set on green peach aphid, the mortality at 100 ppm was over 95%. This compound had a mortality at 10 mg/m2 with German cockroach (24 h) of 100%. The mortality at 50 mg/m2 in the data set on German cockroach (24 h) was 100%. For the same compound, the LC50 at 48 h in the data set “Test 8: Fish Toxicity” is over 0.1 µg/mL. This compound had an LD50 at 168 h in data set [1] of over 500 mg/kg.
As for `CC(C)(COCc1cccc(Oc2ccccc2)c1)c1cc(Cl)cc(Cl)c1` [Compound 56, 3-Phenoxybenzyl 2-(3,5-dichlorophenyl)-2-methylpropyl ether], the mortality at 20 ppm in data set [2] was 100%; in [3] (setting [6]), 90%. The mortality at 100 ppm came to 100% in [2], 100% in [3] (setting [7]) and 80% in the data set with two-spotted spider mite. The compound further showed an LD50 at 168 h in data set [1] of over 500 mg/kg.
As for `CCCCCOc1ccc(C(C)(C)COCc2cccc(Oc3ccccc3)c2)cc1` [Compound 62, 3-Phenoxybenzyl 2-[4-(n-pentyloxy)phenyl]-2-methylpropyl ether], the mortality at 20 ppm in the data set on tobacco cutworm [4] was determined as 80%; in the data set on diamond back moth (setting [8]), 50%. Moreover, the mortality at 100 ppm was 100% in the data set on tobacco cutworm [4], 100% in the data set on diamond back moth (setting [9]) and 80 to 95% in the data set on green peach aphid. The LC50 at 48 h in the data set “Test 8: Fish Toxicity” is over 1 µg/mL. The LD50 at 168 h in [1] is over 500 mg/kg.
`Cc1ccc(C(C)(C)COCc2cccc(Oc3ccccc3)c2)cc1Cl` [Compound 73]: the mortality at 20 ppm with tobacco cutworm [4] stood at 100%; in the data set on diamond back moth (setting [8]) it was 90%. Further, the mortality at 100 ppm in the data set on tobacco cutworm [4] was 100%; in the data set with diamond back moth (setting [9]), 100%; with green peach aphid, over 95%. The mortality at 10 mg/m2 in the data set on German cockroach (setting [10]) turned out to be 100%. The mortality at 50 mg/m2 in the data set on German cockroach (setting [11]) came to 100%. Further, in “Test 8: Fish Toxicity”, the LC50 at 48 h was over 10 µg/mL. Besides, the LD50 at 168 h in data set [1] was over 500 mg/kg.
